Test results from BindingDB's records for doi:10.1016/j.bmc.2010.03.036 (Chugai Pharmaceutical, 2010).

Tests used:
[1] = Antagonist activity at AR in human LNCAP cells assessed as effect on cell proliferation after 6 days
[2] = Antagonist activity at AR in bicalutamide-resistant human LNCAP cells assessed as effect on cell proliferation after 6 days

| Compound | IC50 [1] [nM] | IC50 [2] [nM] |
| --- | --- | --- |
| CC1(C)C(=O)N(c2ccc(C#N)c(Cl)c2)C(=S)N1CCCS(N)(=O)=O [3-[3-(3-Chloro-4-cyanophenyl)-5,5-dimethyl-4-oxo-2-thioxoimidazolidin-1-yl]propane-1-sulfonamide] | 410 | 12 |
| CNS(=O)(=O)CCCN1C(=S)N(c2ccc(C#N)c(C(F)(F)F)c2)C(=O)C1(C)C [3-[3-(4-Cyano-3-trifluoromethylphenyl)-5,5-dimethyl-4-oxo-2-thioxoimidazolidin-1-yl]propane-1-sulfonic acidmethylamide] | 190 | 30 |
| CC1(C)C(=O)N(c2ccc(C#N)c(C(F)(F)F)c2)C(=S)N1CCS(N)(=O)=O [2-[3-(4-Cyano-3-trifluoromethylphenyl)-5,5-dimethyl-4-oxo-2-thioxoimidazolidin-1-yl]ethanesulfonamide] |  | 79 |
| CC1(C)C(=O)N(c2ccc(C#N)c(C(F)(F)F)c2)C(=S)N1CCCNS(N)(=O)=O [3-[3-(4-Cyano-3-trifluoromethylphenyl)-5,5-dimethyl-4-oxo-2-thioxoimidazolidin-1-yl]propylsulfamide] | 780 | 89 |
| CC1(C)C(=O)N(c2ccc(C#N)c(C(F)(F)F)c2)C(=S)N1CCCCS(N)(=O)=O [4-[3-(4-Cyano-3-trifluoromethylphenyl)-5,5-dimethyl-4-oxo-2-thioxoimidazolidin-1-yl]butane-1-sulfonamide] | 1400 | 110 |
| CC1(C)C(=O)N(c2ccc(C#N)c(C(F)(F)F)c2)C(=S)N1CCCS(N)(=O)=O [3-[3-(4-Cyano-3-trifluoromethylphenyl)-5,5-dimethyl-4-oxo-2-thioxoimidazolidin-1-yl]propane-1-sulfonamide] | 160 | 18 |
| CC1(C)C(=O)N(c2ccc(C#N)c(C(F)(F)F)c2)C(=S)N1CCCC(=O)O [4-[3-(4-cyano-3-trifluoromethylphenyl)-5,5-dimethyl-4-oxo-2-thioxoimidazolidin-1-yl]butyric acid] | 2000 | 400 |
| CN(C)S(=O)(=O)CCCN1C(=S)N(c2ccc(C#N)c(C(F)(F)F)c2)C(=O)C1(C)C [3-[3-(4-Cyano-3-trifluoromethylphenyl)-5,5-dimethyl-4-oxo-2-thioxoimidazolidin-1-yl]propane-1-sulfonic aciddimethylamide] | 3700 |  |
| Cc1c(N2C(=O)C(C)(C)N(CCCS(N)(=O)=O)C2=S)ccc(C#N)c1C(F)(F)F [3-[3-(4-Cyano-2-methyl-3-trifluoromethylphenyl)-5,5-dimethyl-4-oxo-2-thioxoimidazolidin-1-yl]propane-1-sulfonamide] | 1100 |  |
| CC1(C)C(=O)N(c2ccc(C#N)c(C(F)(F)F)c2)C(=S)N1CCCNC(N)=O [3-[3-(4-Cyano-3-trifluoromethylphenyl)-5,5-dimethyl-4-oxo-2-thioxoimidazolidin-1-yl]propylurea] | 1600 | 200 |
| CC1(C)C(=O)N(c2ccc(C#N)c(C(F)(F)F)c2)C(=S)N1CCCC(N)=O [4-[3-(4-Cyano-3-trifluoromethylphenyl)-5,5-dimethyl-4-oxo-2-thioxoimidazolidin-1-yl]butyramide] | 400 | 55 |
| Cc1cc(N2C(=O)C(C)(C)N(CCCS(N)(=O)=O)C2=S)ccc1C#N [3-[3-(4-Cyano-3-methylphenyl)-5,5-dimethyl-4-oxo-2-thioxoimidazolidin-1-yl]propane-1-sulfonamide] | 300 | 51 |
